In patent US10981891B2, “Antibacterial compounds and uses thereof” (priority 2016, dated 2021):
Values after ≈ are worked out from the molar mass of the structure shown.

tested on: M. tuberculosis H37Rv (ATCC 27294); test: Microplate Alamar Blue assay (MABA), MIC against replicating M. tuberculosis H37Rv; format: cell-based; details: Mycobacterium tuberculosis, 168 h, read-out: M. tuberculosis MIC

Row | Compound | MIC
1 | COc1nc2ccc(Br)cc2cc1C(c1ccccc1)C(O)(CCN(C)C)c1cccc2ccsc12 (stereo not shown) [Example 15, 2-(Benzo[b]thiophen-7-yl)-1-(6-bromo-2-methoxyquinolin-3-yl)-4-(dimethylamino)-1-phenylbutan-2-ol] | 0.02 µg/mL (≈ 0.0356 µM)
2 | COc1nc2ccc(Br)cc2cc1C(c1ccccc1)C(O)(CCN(C)C)c1cccc2c1CCC2 (stereo not shown) [Example 40, 1-(6-Bromo-2-methoxyquinolin-3-yl)-2-(2,3-dihydro-1H-inden-4-yl)-4-(dimethylamino)-1-phenylbutan-2-ol] | 0.07 µg/mL (≈ 0.128 µM)

same assay, conditions: Mycobacterium tuberculosis, 168 h; H37Rv, MABA, 7H12 media, 7 days at 37° C.; MIC = lowest concentration reducing fluorescence by 90% relative to controls; read-out: M. tuberculosis MIC

Row | Compound | MIC
3 | COc1cc(C(O)(CCN(C)C)C(c2cc3cc(C#N)ccc3nc2OC)c2cccc(C)c2F)cc(OC)n1 (stereo not shown) [Example 86, 3-(2-(2,6-Dimethoxypyridin-4-yl)-4-(dimethylamino)-1-(2-fluoro-3-methylphenyl)-2-hydroxybutyl)-2-methoxyquinoline-6-carbonitrile] | < 0.02 µg/mL
4 | COc1nc2ccc(C#N)cc2cc1C(c1cccc2c1OCCO2)C(O)(CCN(C)C)c1cc(SC)nc(SC)c1 (stereo not shown) [Example 90, 3-(2-(2,6-Bis(methylthio)pyridin-4-yl)-1-(2,3-dihydrobenzo[b][1,4]dioxin-5-yl)-4-(dimethylamino)-2-hydroxybutyl)-2-methoxyquinoline-6-carbonitrile] | 0.01 µg/mL (≈ 0.0166 µM)
5 | CNCCC(O)(c1cc(OC)nc(OC)c1)C(c1cc2cc(C#N)ccc2nc1OC)c1cccc2c1OCCO2 (stereo not shown) [Example 93, 3-(1-(2,3-Dihydrobenzo[b][1,4]dioxin-5-yl)-2-(2,6-dimethoxypyridin-4-yl)-2-hydroxy-4-(methylamino)butyl)-2-methoxyquinoline-6-carbonitrile] | 0.01 µg/mL (≈ 0.018 µM)
6 | CCOc1cc(C(O)(CCN(C)C)C(c2cc3cc(Br)ccc3nc2OC)c2ccnc(OC)c2OC)cc(OC)n1 (stereo not shown) [Example 20, 1-(6-Bromo-2-methoxyquinolin-3-yl)-1-(2,3-dimethoxypyridin-4-yl)-4-(dimethylamino)-2-(2-ethoxy-6-methoxypyridin-4-yl)butan-2-ol] | < 0.02 µg/mL
7 | CCOc1cc(C(O)(CCN(C)C)C(c2cc3cc(Br)ccc3nc2OC)c2ccnc(OC)c2OC)cc(OC(C)C)n1 (stereo not shown) [Example 23, 1-(6-Bromo-2-methoxyquinolin-3-yl)-1-(2,3-dimethoxypyridin-4-yl)-4-(dimethylamino)-2-(2-ethoxy-6-isopropoxypyridin-4-yl)butan-2-ol] | < 0.02 µg/mL
8 | COc1cc(C(O)(CCN(C)C)C(c2cc3cc(Br)ccc3nc2OC)c2ccnc(OC)c2OC)cc(OC(C)C)n1 (stereo not shown) [Example 18, 1-(6-Bromo-2-methoxyquinolin-3-yl)-1-(2,3-dimethoxypyridin-4-yl)-4-(dimethylamino)-2-(2-isopropoxy-6-methoxypyridin-4-yl)butan-2-ol] | < 0.01 µg/mL
9 | COc1nc2ccc(Br)cc2cc1C(c1ccccc1)C(O)(CCN(C)C)c1cccc2ccoc12 (stereo not shown) [Example 2, 2-(Benzofuran-7-yl)-1-(6-bromo-2-methoxyquinolin-3-yl)-4-(dimethylamino)-1-phenylbutan-2-ol] | 0.07 µg/mL (≈ 0.128 µM)
10 | COc1cc(C(O)(CCN(C)C)C(c2cc3cc(Br)ccc3nc2OC)c2cccc(OC)c2F)cc(OC(C)C)n1 (stereo not shown) [Example 16, 1-(6-Bromo-2-methoxyquinolin-3-yl)-4-(dimethylamino)-1-(2-fluoro-3-methoxyphenyl)-2-(2-isopropoxy-6-methoxypyridin-4-yl)butan-2-ol] | < 0.02 µg/mL
11 | COc1cc(C(c2cc3cc(C#N)ccc3nc2OC)C(O)(CCN(C)C)c2cccc3ccoc23)cc(OC(C)C)n1 (stereo not shown) [Example 77, 3-(2-(Benzofuran-7-yl)-4-(dimethylamino)-2-hydroxy-1-(2-isopropoxy-6-methoxypyridin-4-yl)butyl)-2-methoxyquinoline-6-carbonitrile] | < 0.02 µg/mL
12 | COc1nc2ccc(C#N)cc2cc1C(c1cccc(C)c1F)C(O)(CCN(C)C)c1cc(SC)nc(SC)c1 (stereo not shown) [Example 89, 3-(2-(2,6-Bis(methylthio)pyridin-4-yl)-4-(dimethylamino)-1-(2-fluoro-3-methylphenyl)-2-hydroxybutyl)-2-methoxyquinoline-6-carbonitrile] | 0.02 µg/mL (≈ 0.0347 µM)
13 | COc1nc2ccc(Br)cc2cc1C(c1ccnc(OC)c1OC)C(O)(CCN(C)C)c1ccc2occc2c1 (stereo not shown) [Example 10, 2-(Benzofuran-5-yl)-1-(6-bromo-2-methoxyquinolin-3-yl)-1-(2,3-dimethoxypyridin-4-yl)-4-(dimethylamino)butan-2-ol] | 0.03 µg/mL (≈ 0.0495 µM)
14 | CCOc1cc(C(O)(CCN(C)C)C(c2cc(OC)nc(OC)c2)c2cc3cc(Br)ccc3nc2OC)cc(OC(C)C)n1 (stereo not shown) [Example 24, 1-(6-Bromo-2-methoxyquinolin-3-yl)-1-(2,6-dimethoxypyridin-4-yl)-4-(dimethylamino)-2-(2-ethoxy-6-isopropoxypyridin-4-yl)butan-2-ol] | < 0.02 µg/mL
15 | COc1nc2ccc(Br)cc2cc1C(c1ccnc(OC)c1OC)C(O)(CCN(C)C)c1cccc(C)c1 (stereo not shown) [Example 4, 1-(6-Bromo-2-methoxyquinolin-3-yl)-1-(2,3-dimethoxypyridin-4-yl)-4-(dimethylamino)-2-(m-tolyl)butan-2-ol] | 0.02 µg/mL (≈ 0.0345 µM)
16 | CCOc1cc(C(O)(CCN(C)C)C(c2cccc(C)c2)c2cc3cc(Cl)ccc3nc2OC)cc(OCC)n1 (stereo not shown) [Example 32, 1-(6-Chloro-2-methoxyquinolin-3-yl)-2-(2,6-diethoxypyridin-4-yl)-4-(dimethylamino)-1-(m-tolyl)butan-2-ol] | 0.02 µg/mL (≈ 0.0355 µM)
17 | COc1cc(C(O)(CCN(C)C)C(c2ccc(C)s2)c2cc3cc(C#N)ccc3nc2OC)cc(OC)n1 (stereo not shown) [Example 75, 3-(2-(2,6-Dimethoxypyridin-4-yl)-4-(dimethylamino)-2-hydroxy-1-(5-methylthiophen-2-yl)butyl)-2-methoxyquinoline-6-carbonitrile] | 0.19 µg/mL (≈ 0.357 µM)
18 | COc1cc(C(c2cc3cc(Br)ccc3nc2OC)C(O)(CCN(C)C)c2cccc(F)c2)cnc1OC (stereo not shown) [Example 3, 1-(6-Bromo-2-methoxyquinolin-3-yl)-1-(5,6-dimethoxypyridin-3-yl)-4-(dimethylamino)-2-(3-fluorophenyl)butan-2-ol] | 0.47 µg/mL (≈ 0.804 µM)
19 | COc1cc(C(O)(CCN(C)C)C(c2cc3cc(Br)ccc3nc2OC)c2cccc(C)c2F)cc(OC(F)F)n1 (stereo not shown) [Example 54, 1-(6-Bromo-2-methoxyquinolin-3-yl)-2-(2-(difluoromethoxy)-6-methoxypyridin-4-yl)-4-(dimethylamino)-1-(2-fluoro-3-methylphenyl)butan-2-ol] | 0.01 µg/mL (≈ 0.0158 µM)
20 | COc1cc(C(O)(CCN(C)C)C(c2cc3cc(Br)ccc3nc2OC)c2ccnc(OC)c2OC)cc(OC(F)F)n1 (stereo not shown) [Example 51, 1-(6-Bromo-2-methoxyquinolin-3-yl)-2-(2-(difluoromethoxy)-6-methoxypyridin-4-yl)-1-(2,3-dimethoxypyridin-4-yl)-4-(dimethylamino)butan-2-ol] | < 0.004 µg/mL
21 | COc1nc2ccc(C#N)cc2cc1C(c1cccc(F)c1)C(O)(CCN(C)C)c1cc2ccccc2o1 (stereo not shown) [Example 73, 3-(2-(Benzofuran-2-yl)-4-(dimethylamino)-1-(3-fluorophenyl)-2-hydroxybutyl)-2-methoxyquinoline-6-carbonitrile] | 0.08 µg/mL (≈ 0.157 µM)
22 | CCOc1cc(C(O)(CCN(C)C)C(c2cc3cc(Cl)ccc3nc2OC)c2cccc(OC)c2F)cc(OCC)n1 (stereo not shown) [Example 27, 1-(6-Chloro-2-methoxyquinolin-3-yl)-2-(2,6-diethoxypyridin-4-yl)-4-(dimethylamino)-1-(2-fluoro-3-methoxyphenyl)butan-2-ol] | 0.01 µg/mL (≈ 0.0167 µM)
